According to US20230416228A1 (Forkhead Biotherapeutics, Inc., priority 2020, published 2023):
Structures can show the parent of a compound that is named as a salt.

The compounds below were run against T1, human FOXO1 (constitutively active form Thr24Ala, Ser256Ala, Ser319Ala) (Homo sapiens, UniProt Q12778, S256A/S319A/T24A) (assay: FOXO1 inhibitor activity assay: cell-based transcriptional (luciferase) reporter assay in HEK293 cells). Settings: HEK293 cells transfected with insulin response element firefly luciferase reporter, FOXO1 and Renilla luciferase; 10-point dose response 50 μM to 2.5 nM; 24 hours.
T1 construct: expressed in transfected cells; host or cells: HEK293 cells transfected with pcDNA3.1 plasmid
T1 sequence (Q12778 whole entry T24A/S256A/S319A): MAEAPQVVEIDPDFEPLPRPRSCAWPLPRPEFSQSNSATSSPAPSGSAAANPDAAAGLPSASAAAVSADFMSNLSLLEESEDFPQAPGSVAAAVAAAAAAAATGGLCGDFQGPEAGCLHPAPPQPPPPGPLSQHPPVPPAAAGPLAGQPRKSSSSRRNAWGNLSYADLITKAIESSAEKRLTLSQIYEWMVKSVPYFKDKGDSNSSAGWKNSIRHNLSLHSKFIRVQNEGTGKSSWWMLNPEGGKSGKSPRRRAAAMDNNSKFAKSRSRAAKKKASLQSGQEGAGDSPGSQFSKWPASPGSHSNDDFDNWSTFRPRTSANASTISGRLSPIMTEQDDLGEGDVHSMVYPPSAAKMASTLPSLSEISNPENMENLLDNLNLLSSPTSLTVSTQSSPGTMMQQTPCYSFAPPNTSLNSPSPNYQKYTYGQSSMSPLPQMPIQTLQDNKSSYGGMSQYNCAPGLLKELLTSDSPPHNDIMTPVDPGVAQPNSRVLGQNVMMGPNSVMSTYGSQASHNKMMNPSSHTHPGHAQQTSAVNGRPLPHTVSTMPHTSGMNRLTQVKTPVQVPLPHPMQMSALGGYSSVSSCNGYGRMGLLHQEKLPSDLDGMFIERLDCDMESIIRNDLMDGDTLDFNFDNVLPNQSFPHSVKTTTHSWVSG
Outline: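 IC50 and maximal inhibition were fitted by 4-parameter logistic regression on normalized firefly/Renilla luciferase ratios. The 0% reference used RFP in place of FOXO1, and the 100% reference was DMSO-only with all plasmids.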
In the case of `Cn1nc(NC(=O)c2ccc(N3CCC4(CC3)COC4)nc2)cc1-c1nc2ccccc2[nH]1` [Compound A-282, N-[5-(1H-benzimidazol-2-yl)-1-methyl-pyrazol-3-yl]-6-(2-oxa-7-azaspiro[3.5]nonan-7-yl)pyridine-3-carboxamide], the IC50 is reported as < 0.1 µM.
`O=C(Nc1cc(-c2nc3ccccc3[nH]2)[nH]n1)c1ccc(N2CC[C@H](O)C2)nc1` [Compound A-54, N-[5-(1H-benzimidazol-2-yl)-1H-pyrazol-3-yl]-6-[(3S)-3-hydroxy-pyrrolidin-1-yl]pyridine-3-carboxamide] was tested, and the IC50 was 0.3 to 1 µM.
`O=C(O)CN1CCN(c2ccc(C(=O)Nc3cc(-c4nc5ccccc5[nH]4)[nH]n3)cc2)CC1` [Compound A-199, 2-[4-[4-[[5-(1H-benzimidazol-2-yl)-1H-pyrazol-3-yl]carbamoyl]phenyl]-piperazin-1-yl]acetic acid hydrochloride] was tested, and the IC50 was 0.1 to 0.3 µM.
With `O=C(Nc1cc(-c2nc3ccccc3[nH]2)[nH]n1)c1ccc(N2CC(O)C2)nc1` [Compound A-64, N-[5-(1H-benzimidazol-2-yl)-1H-pyrazol-3-yl]-6-(3-hydroxyazetidin-1-yl)pyridine-3-carboxamide] the IC50 was > 1 µM.
With `COc1cc(F)c2[nH]c(-c3cc(NC(=O)c4ccc(N5CCN(C6COC6)CC5)nc4)nn3C)nc2c1` [Compound A-214, N-[5-(7-fluoro-5-methoxy-1H-benzimidazol-2-yl)-1-methyl-pyrazol-3-yl]-6-[4-(oxetan-3-yl)piperazin-1-yl]pyridine-3-carboxamide] the IC50 was < 0.1 µM.
In the case of `O=C(Nc1cc(-c2nc3cc(C(F)(F)F)ccc3[nH]2)[nH]n1)c1ccc(N2CCOCC2)nc1` [Compound A-102, 6-morpholino-N-[5-[5-(trifluoromethyl)-1H-benzimidazol-2-yl]-1H-pyrazol-3-yl]pyridine-3-carboxamide], the IC50 is reported as > 1 µM.
In the case of `Cn1nc(NC(=O)c2ccc(N3CCC(CO)CC3)nc2)cc1-c1nc2ccccc2[nH]1` [Compound A-96, N-[5-(1H-benzimidazol-2-yl)-1-methyl-pyrazol-3-yl]-6-[4-(hydroxy-methyl)-1-piperidyl]pyridine-3-carboxamide], the IC50 is reported as < 0.1 µM.
In the case of `O=C(Nc1cc(-c2nc3cc(F)ccc3[nH]2)[nH]n1)c1ccc(OCCO)c(Cl)c1` [Compound A-141, 3-chloro-N-[5-(5-fluoro-1H-benzimidazol-2-yl)-1H-pyrazol-3-yl]-4-(2-hydroxyethoxy)benzamide], the IC50 is reported as 0.1 to 0.3 µM.
`O=C(Nc1cc(-c2nc3ccccc3[nH]2)[nH]n1)c1ccc(N2CCC(CO)CC2)nc1` [Compound A-67, N-[5-(1H-benzimidazol-2-yl)-1H-pyrazol-3-yl]-6-[4-(hydroxymethyl)-1-piperidyl]pyridine-3-carboxamide] was tested, and the IC50 was < 0.1 µM.
In the case of `COc1cc(F)c2[nH]c(-c3cc(NC(=O)c4ccc(N5CCC(OC)CC5)nc4)nn3C)nc2c1` [Compound A-189, N-[5-(7-fluoro-5-methoxy-1H-benzimidazol-2-yl)-1-methyl-pyrazol-3-yl]-6-(4-methoxy-1-piperidyl)pyridine-3-carboxamide], the IC50 is reported as < 0.1 µM.
`O=C(Nc1cc(-c2nc3ccccc3[nH]2)[nH]n1)c1ccc(N2CCC3(CCCO3)CC2)nc1` [Compound A-44, N-[5-(1H-benzimidazol-2-yl)-1H-pyrazol-3-yl]-6-(1-oxa-8-azaspiro[4.5]decan-8-yl)pyridine-3-carboxamide] was tested, and the IC50 was < 0.1 µM.
Work on `COc1ccc(C(=O)Nc2cc(-c3cn4ccccc4n3)[nH]n2)cc1Cl` [Compound A-112, 3-chloro-N-(5-imidazo[1,2-a]pyridin-2-yl-1H-pyrazol-3-yl)-4-methoxy-benzamide] yielded an IC50 of 0.3 to 1 µM.
In the case of `Cn1nc(NC(=O)c2ccc(OC3COC3)c(Cl)c2)cc1-c1nc2ccccc2[nH]1` [Compound A-252, N-[5-(1H-benzimidazol-2-yl)-1-methyl-pyrazol-3-yl]-3-chloro-4-(oxetan-3-yloxy)benzamide], the IC50 is reported as < 0.1 µM.
`COc1cc(F)c2[nH]c(-c3cc(NC(=O)c4ccc(N5CCN(CCO)CC5)nc4)nn3C)nc2c1` [Compound A-211, N-[5-(7-fluoro-5-methoxy-1H-benzimidazol-2-yl)-1-methyl-pyrazol-3-yl]-6-[4-(2-hydroxyethyl)piperazin-1-yl]pyridine-3-carboxamide] was tested, and the IC50 was 0.1 to 0.3 µM.
In the case of `Cn1nc(NC(=O)c2ccc(N3CCN(C(=O)CO)CC3)nc2)cc1-c1nc2ccccc2[nH]1` [Compound A-269, N-[5-(1H-benzimidazol-2-yl)-1-methyl-pyrazol-3-yl]-6-[4-(2-hydroxyacetyl)piperazin-1-yl]pyridine-3-carboxamide], the IC50 is reported as 0.1 to 0.3 µM.
With `Cn1nc(NC(=O)c2ccc(N3CCOCC3)nc2)cc1-c1nc2cc(F)ccc2[nH]1` [Compound A-148, N-[5-(5-fluoro-1H-benzimidazol-2-yl)-1-methyl-pyrazol-3-yl]-6-morpholino-pyridine-3-carboxamide] the IC50 was 0.1 to 0.3 µM.
For `C[C@@H]1CN(c2ccc(C(=O)Nc3cc(-c4nc5ccccc5[nH]4)n(C)n3)cn2)C[C@H](C)N1` [Compound A-255, N-[5-(1H-benzimidazol-2-yl)-1-methyl-pyrazol-3-yl]-6-[(3R,5S)-3,5-dimethylpiperazin-1-yl]pyridine-3-carboxamide], the IC50 was < 0.1 µM.
In the case of `Cn1nc(NC(=O)c2ccc(N3CCC[C@H]3C(=O)O)nc2)cc1-c1nc2cccc(F)c2[nH]1` [Compound A-155, (2S)-1-[5-[[5-(7-fluoro-1H-benzimidazol-2-yl)-1-methyl-pyrazol-3-yl]carbamoyl]-2-pyridyl]pyrrolidine-2-carboxylic acid], the IC50 is reported as > 1 µM.
With `O=C(Nc1cc(-c2nc3cccc(F)c3[nH]2)[nH]n1)c1ccc(OCCO)c(Cl)c1` [Compound A-119, 3-chloro-N-[5-(7-fluoro-1H-benzimidazol-2-yl)-1H-pyrazol-3-yl]-4-(2-hydroxyethoxy)benzamide] the IC50 was 0.1 to 0.3 µM.
`CC1(O)CCCN(c2ccc(C(=O)Nc3cc(-c4nc5ccccc5[nH]4)[nH]n3)cn2)C1` (stereo not shown) [Compound A-59, N-[5-(1H-benzimidazol-2-yl)-1H-pyrazol-3-yl]-6-(3-hydroxy-3-methyl-1-piperidyl)pyridine-3-carboxamide] showed an IC50 of 0.3 to 1 µM.
`COCCOc1ccc(C(=O)Nc2cc(-c3nc4ccccc4[nH]3)[nH]n2)cc1C(F)(F)F` [Compound A-104, N-[5-(1H-benzimidazol-2-yl)-1H-pyrazol-3-yl]-4-(2-methoxyethoxy)-3-(trifluoromethyl)benzamide] was tested, and the IC50 was < 0.1 µM.
`COCCOc1ccc(C(=O)Nc2cc(-c3nc4ccccc4[nH]3)[nH]n2)cc1C` [Compound A-94, N-[5-(1H-benzimidazol-2-yl)-1H-pyrazol-3-yl]-4-(2-methoxyethoxy)-3-methyl-benzamide] was tested, and the IC50 was < 0.1 µM.
In the case of `CN1CCN(c2ccc(C(=O)Nc3cc(-c4nc5ccccc5[nH]4)[nH]n3)nn2)CC1` [Compound A-177, N-[5-(1H-benzimidazol-2-yl)-1H-pyrazol-3-yl]-6-(4-methylpiperazin-1-yl)pyridazine-3-carboxamide], the IC50 is reported as > 1 µM.
`COc1ccc(C(=O)Nc2cc(-c3nc4cccc(F)c4[nH]3)n(C)n2)cc1Cl` [Compound A-125, 3-chloro-N-[5-(7-fluoro-1H-benzimidazol-2-yl)-1-methyl-pyrazol-3-yl]-4-methoxy-benzamide] was tested, and the IC50 was 0.1 to 0.3 µM.
For `Cn1nc(NC(=O)c2ccc(N3CCNCC3)nc2)cc1-c1nc2ccccc2[nH]1` [Compound A-216, N-[5-(1H-benzimidazol-2-yl)-1-methyl-pyrazol-3-yl]-6-piperazin-1-yl-pyridine-3-carboxamide], the IC50 was 0.1 to 0.3 µM.
With `COC1CN(c2ncc(C(=O)Nc3cc(-c4nc5ccccc5[nH]4)[nH]n3)cn2)C1` [Compound A-183, N-[5-(1H-benzimidazol-2-yl)-1H-pyrazol-3-yl]-2-(3-methoxyazetidin-1-yl)pyrimidine-5-carboxamide] the IC50 was > 1 µM.
With `COc1ccc(C(=O)Nc2cc(-c3nc4cc(F)ccc4[nH]3)n(C)n2)cc1Cl` [Compound A-126, 3-chloro-N-[5-(5-fluoro-1H-benzimidazol-2-yl)-1-methyl-pyrazol-3-yl]-4-methoxy-benzamide] the IC50 was < 0.1 µM.
In the case of `Cc1ccc2[nH]c(-c3cc(NC(=O)c4ccc(N5CCC(O)CC5)nc4)n[nH]3)nc2c1` [Compound A-99, 6-(4-hydroxy-1-piperidyl)-N-[5-(5-methyl-1H-benzimidazol-2-yl)-1H-pyrazol-3-yl]pyridine-3-carboxamide], the IC50 is reported as 0.1 to 0.3 µM.
With `Cc1cc(C(=O)Nc2cc(-c3nc4ccccc4[nH]3)[nH]n2)ccc1OCCO` [Compound A-113, N-[5-(1H-benzimidazol-2-yl)-1H-pyrazol-3-yl]-4-(2-hydroxyethoxy)-3-methyl-benzamide] the IC50 was < 0.1 µM.
`C[C@H](CO)Nc1ccc(C(=O)Nc2cc(-c3nc4ccccc4[nH]3)[nH]n2)cn1` [Compound A-63, N-[5-(1H-benzimidazol-2-yl)-1H-pyrazol-3-yl]-6-[[(1R)-2-hydroxy-1-methyl-ethyl]amino]pyridine-3-carboxamide] was tested, and the IC50 was > 1 µM.
`CN(C)C1CCN(c2ccc(C(=O)Nc3cc(-c4nc5ccccc5[nH]4)[nH]n3)cn2)CC1` [Compound A-46, N-[5-(1H-benzimidazol-2-yl)-1H-pyrazol-3-yl]-6-[4-(dimethylamino)-1-piperidyl]pyridine-3-carboxamide] was tested, and the IC50 was < 0.1 µM.
For `COCCN1CCN(c2ccc(C(=O)Nc3cc(-c4nc5ccccc5[nH]4)n(CCO)n3)cn2)CC1` [Compound A-198, N-[5-(1H-benzimidazol-2-yl)-1-(2-hydroxyethyl)pyrazol-3-yl]-6-[4-(2-methoxyethyl)piperazin-1-yl]pyridine-3-carboxamide], the IC50 was 0.3 to 1 µM.
For `Cn1nc(NC(=O)c2ccc(N3C4CCC3COC4)nc2)cc1-c1nc2ccccc2[nH]1` [Compound A-285, N-[5-(1H-benzimidazol-2-yl)-1-methyl-pyrazol-3-yl]-6-(3-oxa-8-azabicyclo[3.2.1]octan-8-yl)pyridine-3-carboxamide], the IC50 was < 0.1 µM.
Work on `COC1CN(c2ccc(C(=O)Nc3cc(-c4nc5cccc(F)c5[nH]4)[nH]n3)cn2)C1` [Compound A-131, N-[5-(7-fluoro-1H-benzimidazol-2-yl)-1H-pyrazol-3-yl]-6-(3-methoxy-azetidin-1-yl)pyridine-3-carboxamide] yielded an IC50 of 0.1 to 0.3 µM.
